In patent US20230203055A1, “FUSED RING COMPOUND AND APPLICATION THEREOF IN MEDICINE” (Betta Pharmaceuticals Co., LTD, priority 2020, published 2023):

Assays:
MIA PaCa-2 cells = assay: Detection of cell proliferation inhibition, MIA PaCa-2 (Cell-titer Glo, 96 h); type: cell-based; details: Homo sapiens, read-out: IC50 (nM) MIA PaCa-2
Method: MIA PaCa-2 cells were plated in a 96-well ultra-low adsorption plate at 600 cells and 160 µL/well. After overnight incubation, compound solutions with gradient concentrations were prepared, and 40 µL of DMSO solutions of the compounds to be tested were added to each well of cells respectively. Compound final concentrations were 10000, 2000, 400, 80, 16, 3.2, 0.64, 0.12, 0.025, 0 nM (all final concentrations of DMSO were 0.25%). Incubate at 37° C., 5% CO2 for 96 h. Add 50 µL of Cell-titer Glo working solution to each well, shake and mix well, incubate at room temperature for 10 min, read the Luminescence luminescence value with a multi-function microplate reader, and convert the luminescence value reading into inhibition percentage: Percent Inhibition = (Max-Reading)/(Max-Min)* 100. • “Max” is the DMSO control; • “Min” is the cell-free control.
Curve fitting was performed with Graphpad Prism software and IC50 values were obtained. See Table 1for IC50 data for the inhibition of MIA PaCa-2 cells by the compounds of the examples.

H358 cells = assay: Detection of cell proliferation inhibition, H358 (Cell-titer Glo, 96 h); type: cell-based; details: Homo sapiens, NCI-H358, read-out: IC50 (nM) H358
Method: H358 cells were plated in 96-well ultra-low adsorption plates at 2000 cells and 190 µL/well. After overnight incubation, compound solutions of gradient concentrations were prepared, and 10 µL of the DMSO solution of each concentration of the compound to be tested was added to the cells in each well. Compound final concentrations were 10000, 3333.3, 1111.1, 370.4, 123.5, 41.2, 13.7, 4.6, 1.5, 0 nM (all final concentrations of DMSO were 0.25%). Incubate at 37° C., 5% CO2 for 96 h. Add 50 µL of Cell-titer Glo working solution to each well, incubate at room temperature for 10 min after shaking and mixing, read the Luminescence luminescence value with a multi-function microplate reader, and convert the luminescence value reading into the inhibition percentage:
Percent Inhibition = (Max-Reading)/(Max-Min)* 100. • “Max” is the DMSO control, • “Min” is the cell-free control.
Curve fitting was performed with Graphpad Prism software and IC50 values were obtained. See Table 1 for IC50 data on H358 cell inhibition by example compounds.

IC50 (MIA PaCa-2 cells) | IC50 (H358 cells) | Structure (SMILES)
1700 nM | 690 nM | C=CC(=O)N1CCN(c2nc(=O)n(-c3c(C)ccnc3C(C)C)c3c4c(c(F)cc23)-c2c(ccc3ccccc23)CO4)[C@@H](C)C1 [Example 21, (S)-1-(4-Acryloyl-2-Methylpiperazin-1-yl)-13-Fluoro-4-(2-Isopropyl-4-Methylpyridine-3-yl)-4H-Benzo[5,6] Isochromene[4,3-h]Quinazolin-3(6H)-one]
2500 nM | 3740 nM | C=CC(=O)N1CCN(c2nc(=O)n(-c3c(C)ccnc3C(C)C)c3c(F)c4c(cc23)OCc2ccc3ccccc3c2-4)[C@@H](C)C1 [Example 22, (S)-10-(4-Acryloyl-2-Methylpiperazin-1-yl)-14-Fluoro-13-(2-Isopropyl-4-Methylpyridine-3-yl)-7H-Benzo[5,6] Isochromene[3,4-g]Quinazolin-12(13H)-One]
292 nM | 532 nM | C=CC(=O)N1CCN(c2nc(=O)n(-c3c(C)ccnc3C(C)C)c3c4c(c(Cl)cc23)-c2cnccc2CO4)[C@@H](C)C1 [Example 23, (S)-1-(4-Acryloyl-2-Methylpiperazin-1-yl)-11-Chloro-4-(2-Isopropyl-4-Methylpyridine-3-yl)-4H-Pyridin[3’,4’:4,5]Pyrano[3.2-h]Quinazolin-3(6H)-One]
< 50 nM | < 50 nM | C=CC(=O)N1CCN(c2nc(=O)n(-c3c(CC)ncnc3CC)c3c4c(c(Cl)cc23)-c2c(F)cccc2CCO4)[C@@H](C)C1 [Example 24]
122 nM | 339 nM | C=CC(=O)N1CCN(c2nc(=O)n(-c3c(C)ccnc3C(C)C)c3c4c(c(F)cc23)-c2c(F)cccc2CO4)CC1CC#N (stereo not shown) [Example 25, 2-(1-Acryloyl-4-(10,11-Difluoro-4-(2-Isopropyl-4-Methylpyridin-3-yl)-3-Oxo-3,6-Dihydro-4H-Isochromene[4,3-h] Quinazolin-1-yl) Piperazin-2-yl)Acetonitrile]
546 nM | 349 nM | C=CC(=O)N1CCN(c2nc(=O)n(-c3c(C)ccnc3C(C)C)c3c(F)c4c(cc23)OCc2cccc(F)c2-4)CC1CC#N (stereo not shown) [Example 26, 2-(1-Acryloyl-4-(1,12-Difluoro-11-(2-Isopropyl-4-Methylpyridin-3-yl)-10-Oxo-10,11-Dihydro-5H -Isochromene[3,4-g]Quinazolin-8-yl)Piperazin-2-yl)Acetonitrile]
66 nM | 110 nM | C=CC(=O)N1CCN(c2nc(=O)n(-c3c(C(C)C)ncc4c3CCC4)c3c4c(c(Cl)cc23)-c2c(ccc(F)c2F)CO4)[C@@H](C)C1 [Example 27]
85 nM | 95 nM | C=CC(=O)N1CCN(c2nc(=O)n(-c3c(C)ccnc3C(C)C)c3c4c(c(Cl)cc23)-c2c(F)ccc(O)c2CO4)[C@@H](C)C1 [Example 28]
< 50 nM | < 50 nM | C=CC(=O)N1CCN(c2nc(=O)n(-c3c(C)ccnc3C(C)C)c3c4c(c(Cl)cc23)-c2c(F)ccc(F)c2CO4)[C@@H](C)C1 [Example 29]
< 50 nM | < 50 nM | C=CC(=O)N1CCN(c2nc(=O)n(-c3c(C)ccnc3C(C)C)c3c4c(c(Cl)cc23)-c2c(ccc(F)c2F)CCO4)[C@@H](C)C1 [Example 30, 10-((S)-4-Acryloyl-2-Methylpiperazin-1-yl)-8-Chloro-6,7-Difluoro-13-(2-Isopropyl-4-Methylpyridin-3-yl)-2,3-Dihydrobenzo[4,5] Oxa[3,2-h]Quinazolin-12(13H)-One]
< 50 nM | < 50 nM | C=CC(=O)N1CCN(c2nc(=O)n(-c3c(CC)cncc3CC)c3c4c(c(Cl)cc23)-c2c(F)cccc2CCO4)[C@@H](C)C1 [Example 31, 10-((S)-4-Actyloyl-2-Methylpiperazin-1-yl)-8-Chloro-13-(3,5-Diethylpyridin-4-yl)-7-Fluoro-2,3-Dihydrobenzo[4,5]Oxa[3,2-h]Quinazolin-12(13H)-One]
< 50 nM | < 50 nM | C=CC(=O)N1CCN(c2nc(=O)n(-c3c(C4CC4)ncnc3C3CC3)c3c4c(c(Cl)cc23)-c2c(F)cccc2CCO4)[C@@H](C)C1 [Example 32, 10-((S)-4-Acryloyl-2-Methylpiperazin-1-yl)-8-Chloro-13-(4,6-Dicyclopropylpyrimidine-5-Base)-7 -Fluoro-2,3-Dihydrobenzo[4,5] Oxa[3,2-h]Quinazolin-12(13H)-One]
< 50 nM | < 50 nM | C=CC(=O)N1CCN(c2nc(=O)n(-c3c(C)ccnc3C(C)C)c3c4c(c(Cl)cc23)-c2c(F)cccc2CO4)C2CC21 (stereo not shown) [Example 33, 1-(5-Acryloyl-2,5-Diazabicyclo [4.1.0] Heptan-2-yl)-11-Chloro-10-Fluoro-4-(2-Isopropyl-4-Methylpyridin-3-yl)-4H-Isochromeno[4,3-h]Quinazolin-3(6H)-One]
908 nM | 780 nM | C=C(F)C(=O)N1CCN(c2nc(=O)n(-c3c(C)ccnc3C(C)C)c3c4c(c(Cl)cc23)-c2c(ccc(F)c2F)CO4)[C@@H](C)C1 [Example 34, (S)-11-Chloro-9,10-Difluoro-1-(4-(2-Fluoroacryloyl)-2-Methylpiperazin-1-yl)-4-(2-Isopropyl-4-Methylpyridin-3-yl)-4H-Isochromo[4,3-h] Quinazolin-3(6H)-One]
< 50 nM | < 50 nM | [2H]C1([2H])Oc2c(c(Cl)cc3c(N4CCN(C(=O)C=C)C[C@@H]4C)nc(=O)n(-c4c(C)ccnc4C(C)C)c23)-c2c1ccc(F)c2F [Example 35]
442 nM | 889 nM | C=CC(=O)N1CCN(c2nc(=O)n(-c3c(C)ccnc3C(C)C)c3nc4c(cc23)OCc2ccccc2-4)[C@@H](C)C1 [Example 36, (S)-8-(4-Acryloyl-2-Methylpiperazin-1-yl)-11-(2-Isopropyl-4-Methylpyridin-3-yl) -5H-Isochromene[3’,4′:5,6]Pyrido[2,3-d]Pyrimidin-10(11H)-One]
1340 nM | 2490 nM | C=CC(=O)N1CCN(c2nc(=O)n(-c3c(C)ccnc3C(C)C)c3nc4c(cc23)OCc2cccc(O)c2-4)[C@@H](C)C1 [Example 37, (S)-8-(4-Acryloyl-2-Methylpiperazin-1-yl)-1-Hydroxy-11-(2-Isopropyl-4-Methylpyridine-3-yl)-5 H-Isochromene [3’,4’:5,6] Pyrido [2,3-d] Pyrimidin 10(11H)-One]
